# What was measured:
# [1] = target: T1, Plasma kallikrein (Homo sapiens, UniProt P03952); assay: Inhibition of purified human plasma kallikrein using H-D-Pro-Phe-Arg-pNA.2HCl as substrate measured after 3 mins by microplate reader analysis
# [2] = target: T1, Plasma kallikrein; assay: Inhibition of purified human plasma kallikrein using H-D-Pro-Phe-Arg-pNA.2HCl as substrate at 5 uM measured after 3 mins by microplate reader analysis relative to control
# [3] = Plasma concentration in rat at 10 mg/kg, po after 24 hrs; assay type: ADME, organism-based
# [4] = Cmax in rat at 10 mg/kg, po; assay type: ADME, organism-based; design: route oral, dose 10 mg/kg; settings: in vivo
# [5] = AUC in rat at 10 mg/kg, po after 24 hrs; assay type: ADME, organism-based; design: route oral, time 24 hrs, dose 10 mg/kg; settings: in vivo
# [6] = species on record: Homo sapiens; assay: Selectivity index, ratio of IC50 for human plasmin to IC50 for human plasma kallikrein
# [7] = species on record: Homo sapiens; assay: Selectivity index, ratio of IC50 for human tPA to IC50 for human plasma kallikrein
# [8] = species on record: Homo sapiens; assay: Selectivity index, ratio of IC50 for human FXa to IC50 for human plasma kallikrein
# [9] = species on record: Homo sapiens; assay: Selectivity index, ratio of IC50 for human Cls to IC50 for human plasma kallikrein
# [10] = species on record: Homo sapiens; assay: Selectivity index, ratio of IC50 for human thrombin to IC50 for human plasma kallikrein
# [11] = species on record: Homo sapiens; assay: Selectivity index, ratio of IC50 for human trypsin to IC50 for human plasma kallikrein
# [12] = species on record: Homo sapiens; assay: Selectivity index, ratio of IC50 for human FX2a to IC50 for human plasma kallikrein
# [13] = species on record: Homo sapiens; assay: Selectivity index, ratio of IC50 for human tissue kallikrein to IC50 for human plasma kallikrein
# [14] = species on record: Homo sapiens; assay: Selectivity index, ratio of IC50 for human APC to IC50 for human plasma kallikrein
# [15] = Half life in monkey at 2.5 mg/kg, iv; assay type: ADME, organism-based, Macaca mulatta; settings: rhesus monkey, in vivo
# [16] = Clearance in monkey at 2.5 mg/kg, iv; assay type: ADME, organism-based, Macaca mulatta; settings: rhesus monkey, in vivo
# [17] = Clearance in monkey at 25 mg/kg, po; assay type: ADME, organism-based, Macaca mulatta; settings: rhesus monkey, in vivo
# [18] = Tmax in monkey at 25 mg/kg, po; assay type: ADME, organism-based, Macaca mulatta; settings: rhesus monkey, in vivo
# [19] = target: Tissue-type plasminogen activator (Homo sapiens, UniProt P00750); assay: Inhibition of recombinant human tPA using H-D-Isoleucyl-L-prolyl-L-arginine p-nitroaniline dihydrochloride as substrate measured after 5 mins by plate reader analysis
# [20] = Solubility of compound at pH 4; assay type: physicochemical; settings: buffer
# [21] = Half life in rat at 30 mg/kg, po; assay type: ADME, organism-based; settings: in vivo
# [22] = target: T2, Complement C1s subcomponent (Homo sapiens, UniProt P09871); assay: Inhibition of human C1s using […] as substrate measured immediately by plate reader analysis
# T2 sequence (P09871 whole entry): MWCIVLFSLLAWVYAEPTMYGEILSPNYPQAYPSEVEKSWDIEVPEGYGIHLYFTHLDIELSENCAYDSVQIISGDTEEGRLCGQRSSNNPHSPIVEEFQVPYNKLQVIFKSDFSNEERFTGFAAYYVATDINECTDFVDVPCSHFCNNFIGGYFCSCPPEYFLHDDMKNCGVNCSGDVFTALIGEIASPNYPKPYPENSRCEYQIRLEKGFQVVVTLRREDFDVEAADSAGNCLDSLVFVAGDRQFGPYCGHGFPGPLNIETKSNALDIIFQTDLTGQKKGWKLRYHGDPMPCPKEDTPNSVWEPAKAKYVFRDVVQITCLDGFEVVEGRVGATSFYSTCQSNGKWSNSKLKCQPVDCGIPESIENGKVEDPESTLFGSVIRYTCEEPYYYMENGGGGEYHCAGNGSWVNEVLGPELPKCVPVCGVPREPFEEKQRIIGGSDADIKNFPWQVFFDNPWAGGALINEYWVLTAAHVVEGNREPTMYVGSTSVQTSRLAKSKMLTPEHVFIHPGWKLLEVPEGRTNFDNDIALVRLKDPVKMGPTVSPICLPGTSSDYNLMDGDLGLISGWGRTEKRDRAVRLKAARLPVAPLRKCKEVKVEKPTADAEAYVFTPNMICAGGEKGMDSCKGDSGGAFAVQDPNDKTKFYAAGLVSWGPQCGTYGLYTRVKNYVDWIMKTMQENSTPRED
# [23] = Oral bioavailability in rat at 30 mg/kg; assay type: ADME, organism-based; settings: in vivo
# [24] = Half life in rat at 3 mg/kg, iv; assay type: ADME, organism-based; settings: in vivo
# [25] = Tmax in rat at 30 mg/kg, po; assay type: ADME, organism-based; settings: in vivo
# [26] = Clearance in rat at 3 mg/kg, iv; assay type: ADME, organism-based; settings: in vivo
# [27] = AUC(0 to 24 hrs) in rat at 30 mg/kg, po; assay type: ADME, organism-based; design: time < 24 hr, route oral, dose 30 mg/kg; settings: in vivo
# [28] = AUC(0 to 24 hrs) in rat at 3 mg/kg, iv; assay type: ADME, organism-based; design: time < 24 hr, route intravenous, dose 3 mg/kg; settings: in vivo
# [29] = Cmax in rat at 30 mg/kg, po; assay type: ADME, organism-based; design: route oral, dose 30 mg/kg; settings: in vivo
# [30] = target: Trypsin (Homo sapiens, UniProt P07477+P07478+P35030); assay: Inhibition of human trypsin using Nalpha-Benzoyl-L-Arginine p-nitroaniline as substrate measured after 5 mins by plate reader analysis; assay type: protein assay
# [31] = Half life in monkey at 25 mg/kg, po; assay type: ADME, organism-based, Macaca mulatta; settings: rhesus monkey, in vivo
# [32] = AUC(0 to 96 hrs) in rat at 3 mg/kg, iv; assay type: ADME, organism-based; design: time < 96 hr, route intravenous, dose 3 mg/kg; settings: in vivo
# [33] = AUC(0 to 24 hrs) in monkey at 2.5 mg/kg, iv; assay type: ADME, organism-based, Macaca mulatta; design: time < 24 hr, route intravenous, dose 2.5 mg/kg; settings: rhesus monkey, in vivo
# [34] = target: T3, Coagulation factor XII (Homo sapiens, UniProt P00748); assay: Inhibition of human factor 12a using D-prolyl-L-phenylalanyl-L-arginine-p-nitroaniline as substrate measured after 5 mins by plate reader analysis
# T3 sequence (P00748 whole entry): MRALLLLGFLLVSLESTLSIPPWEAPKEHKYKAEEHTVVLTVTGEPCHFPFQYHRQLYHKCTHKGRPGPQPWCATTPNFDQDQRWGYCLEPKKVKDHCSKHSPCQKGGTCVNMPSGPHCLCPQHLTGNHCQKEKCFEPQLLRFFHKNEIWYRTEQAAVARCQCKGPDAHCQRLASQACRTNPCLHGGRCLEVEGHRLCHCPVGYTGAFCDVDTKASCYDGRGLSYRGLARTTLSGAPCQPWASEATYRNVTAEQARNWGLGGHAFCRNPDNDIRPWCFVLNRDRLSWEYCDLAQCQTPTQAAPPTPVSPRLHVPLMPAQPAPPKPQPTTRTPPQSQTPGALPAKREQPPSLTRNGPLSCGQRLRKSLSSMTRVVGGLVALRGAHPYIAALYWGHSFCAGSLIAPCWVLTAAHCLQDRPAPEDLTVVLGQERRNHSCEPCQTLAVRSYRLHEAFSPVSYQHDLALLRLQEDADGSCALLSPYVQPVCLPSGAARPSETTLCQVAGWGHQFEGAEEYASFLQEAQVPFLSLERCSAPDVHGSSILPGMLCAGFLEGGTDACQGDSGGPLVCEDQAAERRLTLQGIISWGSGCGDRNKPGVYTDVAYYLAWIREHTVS
# [35] = target: Plasminogen (Homo sapiens, UniProt P00747); assay: Inhibition of human plasmin using Z-Lys-SBzl as substrate measured immediately by plate reader analysis
# [36] = Cmax in monkey at 25 mg/kg, po; assay type: ADME, organism-based, Macaca mulatta; design: route oral, dose 25 mg/kg; settings: rhesus monkey, in vivo
# [37] = Oral bioavailability in monkey at 25 mg/kg; assay type: ADME, organism-based, Macaca mulatta; settings: rhesus monkey, in vivo
# [38] = Cmax in rat at 3 mg/kg, iv; assay type: ADME, organism-based; design: route intravenous, dose 3 mg/kg; settings: in vivo
# [39] = Clearance in rat at 30 mg/kg, po; assay type: ADME, organism-based; settings: in vivo
# [40] = AUC(0 to 96 hrs) in rat at 30 mg/kg, po; assay type: ADME, organism-based; design: time < 96 hr, route oral, dose 30 mg/kg; settings: in vivo
# [41] = Cmax in monkey at 2.5 mg/kg, iv; assay type: ADME, organism-based, Macaca mulatta; design: route intravenous, dose 2.5 mg/kg; settings: rhesus monkey, in vivo
# [42] = target: Coagulation factor X (Homo sapiens, UniProt P00742); assay: Inhibition of human factor 10a using N-a-Benzyloxycarbonyl-D-arginyl-L-glycyl-L-arginine-pnitroaniline-dihydrochloride as substrate measured after 5 mins by plate reader analysis
# [43] = target: Prothrombin (Homo sapiens, UniProt P00734); assay: Inhibition of human thrombin using Nalpha-Benzoyl-Phe-Val-Arg p-nitroaniline as substrate measured after 5 mins by plate reader analysis
# [44] = Solubility of compound at pH 7; assay type: physicochemical; settings: buffer
# [45] = AUC(0 to 24 hrs) in monkey at 25 mg/kg, po; assay type: ADME, organism-based, Macaca mulatta; design: time < 24 hr, route oral, dose 25 mg/kg; settings: rhesus monkey, in vivo
# [46] = Plasma concentration in rat at 5 mg/kg, po after 24 hrs; assay type: ADME, organism-based
# [47] = Plasma concentration in rat at 5 mg/kg, po after 12 hrs; assay type: ADME, organism-based
# [48] = AUC in rat at 5 mg/kg, po after 24 hrs; assay type: ADME, organism-based; design: route oral, dose 5 mg/kg, time 24 hrs; settings: in vivo
# [49] = AUC in rat at 5 mg/kg, po after 12 hrs; assay type: ADME, organism-based; design: route oral, time 12 hrs, dose 5 mg/kg; settings: in vivo
# [50] = Cmax in rat at 5 mg/kg, po; assay type: ADME, organism-based; design: route oral, dose 5 mg/kg; settings: in vivo
# [51] = target: T1, Plasma kallikrein; assay: Inhibition of purified human plasma kallikrein assessed as inhibition constant using H-D-Pro-Phe-Arg-pNA.2HCl as substrate measured after 3 mins by microplate reader analysis
# T1 sequence (P03952 20-390 limits assumed): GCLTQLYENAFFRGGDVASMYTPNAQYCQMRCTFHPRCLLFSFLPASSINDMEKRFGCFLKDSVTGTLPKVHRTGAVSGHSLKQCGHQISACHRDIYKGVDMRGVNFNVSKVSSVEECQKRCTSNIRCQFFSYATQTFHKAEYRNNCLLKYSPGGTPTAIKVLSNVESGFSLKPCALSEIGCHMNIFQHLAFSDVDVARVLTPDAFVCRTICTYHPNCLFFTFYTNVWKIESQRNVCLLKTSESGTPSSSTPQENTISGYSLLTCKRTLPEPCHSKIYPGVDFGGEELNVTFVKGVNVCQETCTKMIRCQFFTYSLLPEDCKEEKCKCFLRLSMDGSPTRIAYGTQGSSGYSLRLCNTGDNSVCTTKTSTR
# T1 sequence (P03952 391-638 limits assumed): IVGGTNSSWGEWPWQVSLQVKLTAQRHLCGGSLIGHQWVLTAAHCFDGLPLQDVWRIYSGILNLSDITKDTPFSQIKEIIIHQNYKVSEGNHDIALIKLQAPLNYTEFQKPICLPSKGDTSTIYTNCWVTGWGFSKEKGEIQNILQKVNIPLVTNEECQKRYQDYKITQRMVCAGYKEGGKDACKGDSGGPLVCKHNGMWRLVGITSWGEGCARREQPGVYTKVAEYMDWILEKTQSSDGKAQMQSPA
# Plasminogen, sequence (P00747 97-580 limits assumed): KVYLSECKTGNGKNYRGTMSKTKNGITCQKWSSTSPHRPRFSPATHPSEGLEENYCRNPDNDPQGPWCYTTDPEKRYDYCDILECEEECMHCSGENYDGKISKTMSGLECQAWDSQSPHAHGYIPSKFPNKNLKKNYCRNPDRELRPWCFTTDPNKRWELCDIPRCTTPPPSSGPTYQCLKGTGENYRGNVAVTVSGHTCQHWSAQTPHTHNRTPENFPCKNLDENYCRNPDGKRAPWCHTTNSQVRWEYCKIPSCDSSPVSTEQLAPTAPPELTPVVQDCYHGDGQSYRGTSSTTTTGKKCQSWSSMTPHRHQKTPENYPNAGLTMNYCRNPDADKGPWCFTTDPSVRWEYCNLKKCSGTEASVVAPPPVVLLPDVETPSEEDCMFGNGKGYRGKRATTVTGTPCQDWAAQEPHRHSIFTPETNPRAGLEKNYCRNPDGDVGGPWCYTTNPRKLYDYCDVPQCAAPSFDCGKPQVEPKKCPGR
# Plasminogen, sequence (P00747 581-810 limits assumed): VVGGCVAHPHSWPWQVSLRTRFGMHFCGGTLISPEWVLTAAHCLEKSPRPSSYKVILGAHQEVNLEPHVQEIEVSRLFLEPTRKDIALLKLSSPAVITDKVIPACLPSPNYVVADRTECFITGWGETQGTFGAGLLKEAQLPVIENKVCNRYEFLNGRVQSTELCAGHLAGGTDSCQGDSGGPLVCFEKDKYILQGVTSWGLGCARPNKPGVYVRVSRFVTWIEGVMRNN
# Coagulation factor X, sequence (P00742 41-179 limits assumed): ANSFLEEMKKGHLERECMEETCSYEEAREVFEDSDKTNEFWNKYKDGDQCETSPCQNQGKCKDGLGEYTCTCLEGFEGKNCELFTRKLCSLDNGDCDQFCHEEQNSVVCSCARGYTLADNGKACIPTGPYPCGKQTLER
# Coagulation factor X, sequence (P00742 235-488 limits assumed): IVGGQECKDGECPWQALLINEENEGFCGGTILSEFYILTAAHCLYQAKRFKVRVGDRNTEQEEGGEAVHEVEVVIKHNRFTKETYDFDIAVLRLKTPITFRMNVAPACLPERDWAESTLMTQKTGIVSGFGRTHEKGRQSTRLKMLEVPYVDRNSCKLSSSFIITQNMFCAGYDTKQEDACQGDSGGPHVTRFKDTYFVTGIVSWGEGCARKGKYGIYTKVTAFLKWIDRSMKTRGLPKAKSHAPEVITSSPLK
# Tissue-type plasminogen activator, sequence (P00750 whole entry): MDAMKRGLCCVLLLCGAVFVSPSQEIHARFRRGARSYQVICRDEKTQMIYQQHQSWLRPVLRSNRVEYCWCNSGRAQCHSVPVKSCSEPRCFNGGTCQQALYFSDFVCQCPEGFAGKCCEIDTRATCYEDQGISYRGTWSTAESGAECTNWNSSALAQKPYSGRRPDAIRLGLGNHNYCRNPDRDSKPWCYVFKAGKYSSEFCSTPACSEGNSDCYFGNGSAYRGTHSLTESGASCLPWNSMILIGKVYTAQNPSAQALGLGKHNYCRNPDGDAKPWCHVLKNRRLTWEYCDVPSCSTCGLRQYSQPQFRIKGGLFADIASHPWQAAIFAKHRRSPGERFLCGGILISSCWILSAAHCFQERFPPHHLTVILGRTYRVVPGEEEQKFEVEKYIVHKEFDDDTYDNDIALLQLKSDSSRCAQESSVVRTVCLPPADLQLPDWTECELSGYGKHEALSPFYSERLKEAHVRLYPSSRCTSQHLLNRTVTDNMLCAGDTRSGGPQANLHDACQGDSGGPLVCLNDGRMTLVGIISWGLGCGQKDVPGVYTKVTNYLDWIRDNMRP
smiles,measurement,setting,value
NCc1cccc(-n2nc(C(F)(F)F)cc2C(=O)Nc2ccc(C3CC3)cc2F)c1,IC50,[1],0.577 µM
NCc1cccc(-n2nc(C(F)(F)F)cc2C(=O)O)c1,IC50,[1],15.4 µM
NCc1cccc(-n2nc(C(F)(F)F)cc2C(=O)Nc2ccc(N3CCCCC3)cc2F)c1,inhibition,[2],7.5%
"NCc1cccc(-n2nc(C(F)(F)F)cc2C(=O)Nc2cc(C(NCC3CC3)c3ccccc3)ccc2F)c1 (single isomer, unassigned; (-))",concentration at 24 h,[3],30 ng/mL
same,Cmax,[4],133 ng/mL
same,AUC at 24 h,[5],1490 ng·h/mL
N#Cc1cccc([C@@H](NCC2CC2)c2ccc(F)c(NC(=O)c3cc(C(F)(F)F)nn3-c3cccc(CN)c3)c2)c1 (stereo in doubt),Ratio IC50,[6],4510
same,Ratio IC50,[7],> 56800
same,Ratio IC50,[8],> 56800
same,Ratio IC50,[9],> 56800
same,Ratio IC50,[10],> 56800
same,Ratio IC50,[11],12500
same,Ratio IC50,[12],> 56800
same,Ratio IC50,[13],> 34100
same,Ratio IC50,[14],> 34100
N#Cc1cccc([C@@H](NCC2CC2)c2ccc(F)c(NC(=O)c3cc(C(F)(F)F)nn3-c3cccc(CN)c3)c2)c1 (stereo in doubt) [BEROTRALSTAT],half-life,[15],18.3 h
same,clearance,[16],30 mL/min/kg
same,CL/F,[17],73 mL/min/kg
same,Tmax,[18],4.7 h
same,IC50,[19],> 50 µM
same,solubility,[20],120 µg/mL
same,half-life,[21],18.5 h
same,IC50,[22],> 50 µM
same,bioavailability,[23],33%
same,half-life,[24],10.1 h
same,Tmax,[25],2 h
same,clearance,[26],27 mL/min/kg
same,AUC(0-t) at 24 h,[27],4780 ng·h/mL
same,Cmax,[4],242 ng/mL
same,AUC at 24 h,[5],2210 ng·h/mL
same,AUC(0-t) at 24 h,[28],1620 ng·h/mL
same,Cmax,[29],475 ng/mL
same,IC50,[30],11 µM
same,half-life,[31],22.7 h
same,AUC(0-t) at 96 h,[32],1860 ng·h/mL
same,AUC(0-t) at 24 h,[33],974 ng·h/mL
same,IC50,[34],> 50 µM
same,IC50,[35],3.97 µM
same,Cmax,[36],342 ng/mL
same,bioavailability,[37],45%
same,Cmax,[38],773 ng/mL
same,CL/F,[39],81 mL/min/kg
same,AUC(0-t) at 96 h,[40],6180 ng·h/mL
same,Cmax,[41],673 ng/mL
same,IC50,[42],> 50 µM
same,IC50,[43],> 50 µM
same,solubility,[44],160 µg/mL
same,AUC(0-t) at 24 h,[45],4150 ng·h/mL
NCc1cccc(-n2nc(C(F)(F)F)cc2C(=O)Nc2cc(C(NCC3CC3)c3ccccc3)ccc2F)c1 (stereo in doubt; 25),concentration at 24 h,[46],29 ng/mL
same,concentration at 12 h,[47],31 ng/mL
same,AUC at 24 h,[48],852 ng·h/mL
same,AUC at 12 h,[49],493 ng·h/mL
same,Cmax,[50],51 ng/mL
C=Cc1cc(C(=O)Nc2ccc(C(=N)N)cc2)c(-c2ccc(C(=O)NCC3CC3)nc2C(=O)O)cc1OC [AVORALSTAT],solubility,[20],47000 µg/mL
same,Ratio IC50,[11],8192
same,Ki,[51],0.00026 µM
same,solubility,[44],1090 µg/mL
